Measured values reported in US11939331B2, “Tricyclic heterocycles as FGFR inhibitors” (Incyte Corporation, priority 2021, dated 2024).

molecular target: wild-type un-phosphorylated FGFR3 protein (Homo sapiens, UniProt P22607); assay: FGFR Enzymatic Assay (FRET peptide phosphorylation)
Sequence (P22607 23-806): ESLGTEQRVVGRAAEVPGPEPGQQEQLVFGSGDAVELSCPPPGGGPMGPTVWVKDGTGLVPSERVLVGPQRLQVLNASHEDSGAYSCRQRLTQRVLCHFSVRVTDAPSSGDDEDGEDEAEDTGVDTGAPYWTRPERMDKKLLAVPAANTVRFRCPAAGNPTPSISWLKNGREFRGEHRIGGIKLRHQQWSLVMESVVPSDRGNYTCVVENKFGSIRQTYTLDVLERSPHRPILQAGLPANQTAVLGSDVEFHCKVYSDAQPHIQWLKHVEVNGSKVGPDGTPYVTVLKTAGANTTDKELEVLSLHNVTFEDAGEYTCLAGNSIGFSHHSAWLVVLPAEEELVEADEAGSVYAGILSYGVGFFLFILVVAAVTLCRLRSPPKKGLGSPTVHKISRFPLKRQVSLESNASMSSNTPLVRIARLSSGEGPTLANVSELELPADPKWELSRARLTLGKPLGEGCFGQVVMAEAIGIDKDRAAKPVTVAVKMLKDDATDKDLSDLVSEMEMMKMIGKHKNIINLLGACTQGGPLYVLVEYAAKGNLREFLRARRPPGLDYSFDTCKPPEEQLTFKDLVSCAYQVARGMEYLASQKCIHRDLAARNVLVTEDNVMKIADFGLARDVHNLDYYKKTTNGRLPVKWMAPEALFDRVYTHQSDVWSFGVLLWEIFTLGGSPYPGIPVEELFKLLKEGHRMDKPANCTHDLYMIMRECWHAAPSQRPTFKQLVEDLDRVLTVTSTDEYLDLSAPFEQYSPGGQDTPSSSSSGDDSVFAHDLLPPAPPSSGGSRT
Experimental: The inhibitor potency of the exemplified compounds was determined in an enzyme discontinuous assay that measures peptide phosphorylation using FRET measurements to detect product formation. Inhibitors were serially diluted in DMSO and a volume of 0.2 μL was transferred to the wells of a 384-well plate. A 5 μL/well volume of enzyme isoforms of FGFR (-1, -2, -3 wild-type and mutant isoforms, -4) including phosphorylated and un-phosphorylated proteins diluted in assay buffer (50 mM HEPES, 10 mM MgCl2, 1 mM EGTA, 0.01% Tween-20, 5 mM DTT, pH 7.5) was added to the plate and pre-incubated with inhibitor for 5 to 15 minutes at ambient temperature. Appropriate controls (enzyme blank and enzyme with no inhibitor) were included on the plate. The reaction was initiated by the addition of a 5 μL/well volume containing both biotinylated [sequence] peptide substrate (SEQ ID NO: 1) and ATP in assay buffer. The 10 μL/well reaction concentration of the peptide substrate was 500 nM whereas the ATP concentration was maintained near or below the ATP Km. The ATP Km values were pre-determined in a separate series of experiments. The reaction plate was incubated at 25° C. for 1 hr and the reactions were ended with the addition of 5 μL/well of quench solution (50 mM Tris, 150 mM NaCl, 0.5 mg/mL BSA, pH 7.8; 45 mM EDTA, 600 nM staurosporin, with Perkin Elmer Lance Reagents at 3.75 nM Eu-antibody PY20 and 180 nM APC-Streptavidin). The plate was allowed to equilibrate for ˜10 minutes at ambient temperature before scanning on a PheraStar plate reader (BMG Labtech) instrument.
Either GraphPad prism or XLfit was used to analyze the data. The IC50 values were derived by fitting the data to a four parameter logistic equation producing a sigmoidal dose-response curve with a variable Hill coefficient. Prism equation: Y=Bottom+(Top−Bottom)/(1+10^((Log IC50−X)*Hill slope)); XLfit equation: Y=(A+((B−A)/(1+((X/C)^D)))) where X is the logarithm of inhibitor concentration and Y is the response.

Q: How did the IC50 turn out when `NC(=O)c1c(-c2c(Cl)cccc2Cl)nc2c3cc(-c4cnn(CCO)c4)cnc3ccn12` [Example 1, 2-(2,6-Dichlorophenyl)-9-(1-(2-hydroxyethyl)-1H-pyrazol-4-yl)imidazo[2,1-f][1,6]naphthyridine-3-carboxamide] was run?
A: < 100 pM

Q: For `CC(C)(O)Cn1cc(-c2cnc3ccn4c(C(N)=O)c(-c5c(Cl)cccc5Cl)nc4c3c2)cn1` [Example 2, 2-(2,6-Dichlorophenyl)-9-(1-(2-hydroxy-2-methylpropyl)-1H-pyrazol-4-yl)imidazo[2,1-f][1,6]naphthyridine-3-carboxamide], which IC50 is on record?
A: < 100 pM

Q: `CC(C)(C(N)=O)n1cc(-c2cnc3ccn4c(C(N)=O)c(-c5c(Cl)cccc5Cl)nc4c3c2)cn1` [Example 3, 9-(1-(1-Amino-2-methyl-1-oxopropan-2-yl)-1H-pyrazol-4-yl)-2-(2,6-dichlorophenyl)imidazo[2,1-f][1,6]naphthyridine-3-carboxamide] was tested. Which IC50 did it give?
A: 100 to 1000 pM

Q: Which IC50 does the source give for `NC(=O)c1c(-c2c(Cl)cccc2Cl)nc2c3cc(-c4ccc(C(=O)N5CCOCC5)cc4)cnc3ccn12` [Example 4, 2-(2,6-Dichlorophenyl)-9-(4-(morpholine-4-carbonyl)phenyl)imidazo[2,1-f][1,6]naphthyridine-3-carboxamide] here?
A: < 100 pM

Q: Which IC50 does the source give for `NC(=O)c1c(-c2c(Cl)cccc2Cl)nc2c3cc(-c4cn[nH]c4)cnc3ccn12` [Example 5, 2-(2,6-Dichlorophenyl)-9-(1H-pyrazol-4-yl)imidazo[2,1-f][1,6]naphthyridine-3-carboxamide] here?
A: < 100 pM

Q: How did the IC50 turn out when `CC(CC#N)n1cc(-c2cnc3ccn4c(C(N)=O)c(-c5c(Cl)cccc5Cl)nc4c3c2)cn1` (centres unmarked) [Example 6, 9-(1-(1-Cyanopropan-2-yl)-1H-pyrazol-4-yl)-2-(2,6-dichlorophenyl)imidazo[2,1-f][1,6]naphthyridine-3-carboxamide] was run?
A: < 100 pM

Q: How did the IC50 turn out when `CCC(O)Cn1cc(-c2cnc3ccn4c(C(N)=O)c(-c5c(Cl)cccc5Cl)nc4c3c2)cn1` (centres unmarked) [Example 7, 2-(2,6-Dichlorophenyl)-9-(1-(2-hydroxybutyl)-1H-pyrazol-4-yl)imidazo[2,1-f][1,6]naphthyridine-3-carboxamide] was run?
A: 100 to 1000 pM

Q: With `NC(=O)c1c(-c2c(Cl)cccc2Cl)nc2c3cc(-c4cnn(CC5(F)CCOCC5)c4)cnc3ccn12` [Example 8, 2-(2,6-Dichlorophenyl)-9-(1-((4-fluorotetrahydro-2H-pyran-4-yl)methyl)-1H-pyrazol-4-yl)imidazo[2,1-f][1,6]naphthyridine-3-carboxamide] as the compound, how does the IC50 read?
A: < 100 pM

Q: How did the IC50 turn out when `N#Cc1cncc(Cn2cc(-c3cnc4ccn5c(C(N)=O)c(-c6c(Cl)cccc6Cl)nc5c4c3)cn2)c1` [Example 9, 9-(1-((5-Cyanopyridin-3-yl)methyl)-1H-pyrazol-4-yl)-2-(2,6-dichlorophenyl)imidazo[2,1-f][1,6]naphthyridine-3-carboxamide] was run?
A: < 100 pM

Q: With `N#Cc1cc(Cn2cc(-c3cnc4ccn5c(C(N)=O)c(-c6c(Cl)cccc6Cl)nc5c4c3)cn2)ccn1` [Example 10, 9-(1-((2-Cyanopyridin-4-yl)methyl)-1H-pyrazol-4-yl)-2-(2,6-dichlorophenyl)imidazo[2,1-f][1,6]naphthyridine-3-carboxamide] as the compound, how does the IC50 read?
A: < 100 pM

Q: Which IC50 does the source give for `NC(=O)c1c(-c2c(Cl)cccc2Cl)nc2c3cc(-c4cnn(Cc5ccncn5)c4)cnc3ccn12` [Example 11, 2-(2,6-Dichlorophenyl)-9-(1-(pyrimidin-4-ylmethyl)-1H-pyrazol-4-yl)imidazo[2,1-f][1,6]naphthyridine-3-carboxamide] here?
A: < 100 pM

Q: With `CC(c1ccnc(C#N)c1)n1cc(-c2cnc3ccn4c(C(N)=O)c(-c5c(Cl)cccc5Cl)nc4c3c2)cn1` (centres unmarked) [Example 12, 9-(1-(1-(2-Cyanopyridin-4-yl)ethyl)-1H-pyrazol-4-yl)-2-(2,6-dichlorophenyl)imidazo[2,1-f][1,6]naphthyridine-3-carboxamide] as the compound, how does the IC50 read?
A: 100 to 1000 pM

Q: For `NC(=O)c1c(-c2c(Cl)cccc2Cl)nc2c3cc(-c4ccc(C5CCS(=O)(=O)CC5)cc4)cnc3ccn12` [Example 13, 2-(2,6-Dichlorophenyl)-9-(4-(1,1-dioxidotetrahydro-2H-thiopyran-4-yl)phenyl)imidazo[2,1-f][1,6]naphthyridine-3-carboxamide], which IC50 is on record?
A: 100 to 1000 pM

Q: With `NC(=O)c1c(-c2c(Cl)cccc2Cl)nc2c3cc(-c4ccc(N5CCS(=O)(=O)CC5)cc4)cnc3ccn12` [Example 14, 2-(2,6-Dichlorophenyl)-9-(4-(1,1-dioxidothiomorpholino)phenyl)imidazo[2,1-f][1,6]naphthyridine-3-carboxamide] as the compound, how does the IC50 read?
A: < 100 pM

Q: For `NC(=O)c1c(-c2c(Cl)cccc2Cl)nc2c3cc(-c4cnn(Cc5ncccn5)c4)cnc3ccn12` [Example 15, 2-(2,6-Dichlorophenyl)-9-(1-(pyrimidin-2-ylmethyl)-1H-pyrazol-4-yl)imidazo[2,1-f][1,6]naphthyridine-3-carboxamide], which IC50 is on record?
A: < 100 pM

Q: Which IC50 does the source give for `N#Cc1cccc(Cn2cc(-c3cnc4ccn5c(C(N)=O)c(-c6c(Cl)cccc6Cl)nc5c4c3)cn2)n1` [Example 16, 9-(1-((6-Cyanopyridin-2-yl)methyl)-1H-pyrazol-4-yl)-2-(2,6-dichlorophenyl)imidazo[2,1-f][1,6]naphthyridine-3-carboxamide] here?
A: < 100 pM

Q: With `CC(=O)N1CCN(c2ccc(-c3cnc4ccn5c(C(N)=O)c(-c6c(Cl)cccc6Cl)nc5c4c3)cc2)CC1` [Example 17, 9-(4-(4-Acetylpiperazin-1-yl)phenyl)-2-(2,6-dichlorophenyl)imidazo[2,1-f][1,6]naphthyridine-3-carboxamide] as the compound, how does the IC50 read?
A: < 100 pM

Q: For `NC(=O)c1c(-c2c(Cl)cccc2Cl)nc2c3cc(-c4ccc(N5CCN(C(=O)CO)CC5)cc4)cnc3ccn12` [Example 18, 2-(2,6-Dichlorophenyl)-9-(4-(4-(2-hydroxyacetyl)piperazin-1-yl)phenyl)imidazo[2,1-f][1,6]naphthyridine-3-carboxamide], which IC50 is on record?
A: < 100 pM

Q: How did the IC50 turn out when `CC(=O)N1CCN(Cc2ccc(-c3cnc4ccn5c(C(N)=O)c(-c6c(Cl)cccc6Cl)nc5c4c3)cc2)CC1` [Example 19, 9-(4-((4-Acetylpiperazin-1-yl)methyl)phenyl)-2-(2,6-dichlorophenyl)imidazo[2,1-f][1,6]naphthyridine-3-carboxamide] was run?
A: < 100 pM

Q: How did the IC50 turn out when `NC(=O)c1c(-c2c(Cl)cccc2Cl)nc2c3cc(-c4ccc(CN5CCN(C(=O)CO)CC5)cc4)cnc3ccn12` [Example 20, 2-(2,6-Dichlorophenyl)-9-(4-((4-(2-hydroxyacetyl)piperazin-1-yl)methyl)phenyl)imidazo[2,1-f][1,6]naphthyridine-3-carboxamide] was run?
A: 100 to 1000 pM

Q: With `CN1CCN(c2ccc(-c3cnc4ccn5c(C(N)=O)c(-c6c(Cl)cccc6Cl)nc5c4c3)cc2)CC1` [Example 21, 2-(2,6-Dichlorophenyl)-9-(4-(4-methylpiperazin-1-yl)phenyl)imidazo[2,1-f][1,6]naphthyridine-3-carboxamide] as the compound, how does the IC50 read?
A: < 100 pM

Q: `NC(=O)c1c(-c2c(Cl)cccc2Cl)nc2c3cc(-c4ccc(C(=O)N5C[C@@H]6C[C@H]5CO6)cc4)cnc3ccn12` [Example 22, 9-(4-((1S,4S)-2-Oxa-5-azabicyclo[2.2.1]heptane-5-carbonyl)phenyl)-2-(2,6-dichlorophenyl)imidazo[2,1-f][1,6]naphthyridine-3-carboxamide] was tested. Which IC50 did it give?
A: < 100 pM

Q: Which IC50 does the source give for `N#CCn1cc(-c2cnc3ccn4c(C(N)=O)c(-c5c(Cl)cccc5Cl)nc4c3c2)cn1` [Example 23, 9-(1-(Cyanomethyl)-1H-pyrazol-4-yl)-2-(2,6-dichlorophenyl)imidazo[2,1-f][1,6]naphthyridine-3-carboxamide] here?
A: < 100 pM

Q: Which IC50 does the source give for `NC(=O)c1c(-c2c(Cl)cccc2Cl)nc2c3cc(-c4cnn(C5CCOCC5)c4)cnc3ccn12` [Example 24, 2-(2,6-Dichlorophenyl)-9-(1-(tetrahydro-2H-pyran-4-yl)-1H-pyrazol-4-yl)imidazo[2,1-f][1,6]naphthyridine-3-carboxamide] here?
A: 100 to 1000 pM

Q: How did the IC50 turn out when `NC(=O)c1c(-c2c(Cl)cccc2Cl)nc2c3cc(-c4cnn(Cc5ccccc5)c4)cnc3ccn12` [Example 25, 9-(1-Benzyl-1H-pyrazol-4-yl)-2-(2,6-dichlorophenyl)imidazo[2,1-f][1,6]naphthyridine-3-carboxamide] was run?
A: 100 to 1000 pM

Q: How did the IC50 turn out when `CS(=O)(=O)CCn1cc(-c2cnc3ccn4c(C(N)=O)c(-c5c(Cl)cccc5Cl)nc4c3c2)cn1` [Example 26, 2-(2,6-Dichlorophenyl)-9-(1-(2-(methylsulfonyl)ethyl)-1H-pyrazol-4-yl)imidazo[2,1-f][1,6]naphthyridine-3-carboxamide] was run?
A: < 100 pM

Q: For `CC(C#N)n1cc(-c2cnc3ccn4c(C(N)=O)c(-c5c(Cl)cccc5Cl)nc4c3c2)cn1` (centres unmarked) [Example 27, 9-(1-(1-Cyanoethyl)-1H-pyrazol-4-yl)-2-(2,6-dichlorophenyl)imidazo[2,1-f][1,6]naphthyridine-3-carboxamide], which IC50 is on record?
A: < 100 pM

Q: Which IC50 does the source give for `NC(=O)c1c(-c2c(Cl)cccc2Cl)nc2c3cc(-c4cnn(CC(F)F)c4)cnc3ccn12` [Example 28, 2-(2,6-Dichlorophenyl)-9-(1-(2,2-difluoroethyl)-1H-pyrazol-4-yl)imidazo[2,1-f][1,6]naphthyridine-3-carboxamide] here?
A: < 100 pM

Q: Which IC50 does the source give for `CN1CCC(n2cc(-c3cnc4ccn5c(C(N)=O)c(-c6c(Cl)cccc6Cl)nc5c4c3)cn2)CC1` [Example 29, 2-(2,6-Dichlorophenyl)-9-(1-(1-methylpiperidin-4-yl)-1H-pyrazol-4-yl)imidazo[2,1-f][1,6]naphthyridine-3-carboxamide] here?
A: < 100 pM

Q: For `CC(C)(CO)n1cc(-c2cnc3ccn4c(C(N)=O)c(-c5c(Cl)cccc5Cl)nc4c3c2)cn1` [Example 30, 2-(2,6-Dichlorophenyl)-9-(1-(1-hydroxy-2-methylpropan-2-yl)-1H-pyrazol-4-yl)imidazo[2,1-f][1,6]naphthyridine-3-carboxamide], which IC50 is on record?
A: < 100 pM

Q: With `CC(C)(C#N)n1cc(-c2cnc3ccn4c(C(N)=O)c(-c5c(Cl)cccc5Cl)nc4c3c2)cn1` [Example 31, 9-(1-(2-Cyanopropan-2-yl)-1H-pyrazol-4-yl)-2-(2,6-dichlorophenyl)imidazo[2,1-f][1,6]naphthyridine-3-carboxamide] as the compound, how does the IC50 read?
A: < 100 pM

Q: For `NC(=O)c1c(-c2c(Cl)cccc2Cl)nc2c3cc(-c4cnn(C5CC5)c4)cnc3ccn12` [Example 32, 9-(1-Cyclopropyl-1H-pyrazol-4-yl)-2-(2,6-dichlorophenyl)imidazo[2,1-f][1,6]naphthyridine-3-carboxamide], which IC50 is on record?
A: < 100 pM
